Measured values published in ChEMBL document CHEMBL5335843, “Application of tobramycin benzyl ether as an antibiotic adjuvant capable of sensitizing multidrug-resistant Gram-negative bacteria to rifampicin” (2024).
Converted amounts (≈) assume the structure as drawn. The source made the active and inactive calls. The rule behind the calls is not given here. Positions of bridges follow the written chain, without caps; N, C: chain ends. Non-standard residues stand in square brackets, D forms with d. Residues, ends and D or L forms follow the SMILES beside them. *: point of attachment. X1 = CC[C@H](C)CCCCC(=O)*; dDab = NCC[C@@H](N)C(=O)O; Dab = NCC[C@H](N)C(=O)O

Assays:
Type in all cases: functional
Acinetobacter baumannii [1] = assay: Antibiotic adjuvant activity against Acinetobacter baumannii ATCC 17978 assessed as fold potentiation incubated for 18 hrs in presence of Rifampicin by two fold broth microdilution checkerboard assay
Escherichia coli [2] = assay: Antibiotic adjuvant activity against Escherichia coli ATCC 25922 assessed as rifampicin MIC incubated for 18 hrs in presence of Rifampicin by two fold broth microdilution checkerboard assay
Acinetobacter baumannii [3] = assay: Antibiotic adjuvant activity against Acinetobacter baumannii ATCC 17978 assessed as rifampicin MIC incubated for 18 hrs in presence of Rifampicin by two fold broth microdilution checkerboard assay
Pseudomonas aeruginosa [4] = assay: Antibiotic adjuvant activity against Pseudomonas aeruginosa PAO1 assessed as fold potentiation incubated for 18 hrs in presence of Rifampicin by two fold broth microdilution checkerboard assay
Acinetobacter baumannii [5] = assay: Antibacterial activity against Acinetobacter baumannii ATCC 17978 assessed as inhibition of bacterial growth incubated for 18 hrs by two fold broth microdilution assay
Escherichia coli [6] = assay: Antibacterial activity against Escherichia coli ATCC 25922 assessed as inhibition of bacterial growth incubated for 18 hrs by two fold broth microdilution assay
Pseudomonas aeruginosa [7] = assay: Antibacterial activity against Pseudomonas aeruginosa PAO1 assessed as inhibition of bacterial growth incubated for 18 hrs by two fold broth microdilution assay
Enterococcus faecium [8] = assay: Antibiotic adjuvant activity against Enterococcus faecium 114278 assessed as inhibition of bacterial growth incubated for 18 hrs in presence of rifampicin by two fold broth microdilution checkerboard assay
Enterococcus faecium [9] = assay: Antibiotic adjuvant activity against Enterococcus faecium 128149 assessed as inhibition of bacterial growth incubated for 18 hrs in presence of rifampicin by two fold broth microdilution checkerboard assay
Staphylococcus aureus [10] = assay: Antibiotic adjuvant activity against methicilin-resistant Staphylococcus aureus assessed as inhibition of bacterial growth incubated for 18 hrs in presence of rifampicin by two fold broth microdilution checkerboard assay
Escherichia coli [11] = assay: Antibacterial activity against multi-drug resistant Escherichia coli clinical isolate 107115 assessed as inhibition of bacterial growth incubated for 18 hrs by two fold broth microdilution assay
Pseudomonas aeruginosa [12] = assay: Antibacterial activity against multi-drug resistant Pseudomonas aeruginosa clinical isolate PA262 assessed as inhibition of bacterial growth incubated for 18 hrs by two fold broth microdilution assay
Pseudomonas aeruginosa [13] = assay: Antibacterial activity against multi-drug resistant Pseudomonas aeruginosa clinical isolate 114228 assessed as inhibition of bacterial growth incubated for 18 hrs by two fold broth microdilution assay
Pseudomonas aeruginosa [14] = assay: Antibacterial activity against multi-drug resistant Pseudomonas aeruginosa clinical isolate 101243 assessed as inhibition of bacterial growth incubated for 18 hrs by two fold broth microdilution assay
Staphylococcus aureus [15] = assay: Antibacterial activity against methicilin-resistant Staphylococcus aureus assessed as inhibition of bacterial growth incubated for 18 hrs by two fold broth microdilution assay
Escherichia coli [16] = assay: Antibacterial activity against multi-drug resistant Escherichia coli clinical isolate 94474 assessed as inhibition of bacterial growth incubated for 18 hrs by two fold broth microdilution assay
Acinetobacter baumannii [17] = assay: Antibacterial activity against multi-drug resistant Acinetobacter baumannii clinical isolate AB031 assessed as inhibition of bacterial growth incubated for 18 hrs by two fold broth microdilution assay
Acinetobacter baumannii [18] = assay: Antibacterial activity against multi-drug resistant Acinetobacter baumannii clinical isolate 110193 assessed as inhibition of bacterial growth incubated for 18 hrs by two fold broth microdilution assay
Acinetobacter baumannii [19] = assay: Antibacterial activity against multi-drug resistant Acinetobacter baumannii clinical isolate AB027 assessed as inhibition of bacterial growth incubated for 18 hrs by two fold broth microdilution assay
Enterococcus faecium [20] = assay: Antibacterial activity against Enterococcus faecium 114278 assessed as inhibition of bacterial growth incubated for 18 hrs by two fold broth microdilution assay
Pseudomonas aeruginosa [21] = assay: Antibacterial activity against multi-drug resistant Pseudomonas aeruginosa clinical isolate PA264 assessed as inhibition of bacterial growth incubated for 18 hrs by two fold broth microdilution assay
Acinetobacter baumannii [22] = assay: Antibacterial activity against multi-drug resistant Acinetobacter baumannii clinical isolate LAC-4 assessed as inhibition of bacterial growth incubated for 18 hrs by two fold broth microdilution assay
Acinetobacter baumannii [23] = assay: Antibacterial activity against multi-drug resistant Acinetobacter baumannii clinical isolate 92247 assessed as inhibition of bacterial growth incubated for 18 hrs by two fold broth microdilution assay
Enterococcus faecium [24] = assay: Antibacterial activity against Enterococcus faecium 128149 assessed as inhibition of bacterial growth incubated for 18 hrs by two fold broth microdilution assay
Escherichia coli [25] = assay: Antibacterial activity against multi-drug resistant Escherichia coli clinical isolate 94393 assessed as inhibition of bacterial growth incubated for 18 hrs by two fold broth microdilution assay
Pseudomonas aeruginosa [26] = assay: Antibacterial activity against multi-drug resistant Pseudomonas aeruginosa clinical isolate PA259 assessed as inhibition of bacterial growth incubated for 18 hrs by two fold broth microdilution assay
Pseudomonas aeruginosa [27] = assay: Antibacterial activity against multi-drug resistant Pseudomonas aeruginosa clinical isolate PA114228 assessed as inhibition of bacterial growth incubated for 18 hrs by two fold broth microdilution assay
Pseudomonas aeruginosa [28] = assay: Antibacterial activity against multi-drug resistant Pseudomonas aeruginosa clinical isolate PA101243 assessed as inhibition of bacterial growth incubated for 18 hrs by two fold broth microdilution assay
Escherichia coli [29] = assay: Antibacterial activity against multi-drug resistant Escherichia coli clinical isolate EC107115 assessed as inhibition of bacterial growth incubated for 18 hrs by two fold broth microdilution assay
Escherichia coli [30] = assay: Antibacterial activity against multi-drug resistant Escherichia coli clinical isolate EC94474 assessed as inhibition of bacterial growth incubated for 18 hrs by two fold broth microdilution assay
Escherichia coli [31] = assay: Antibiotic adjuvant activity against Escherichia coli ATCC 25922 assessed as fold potentiation incubated for 18 hrs in presence of Rifampicin by two fold broth microdilution checkerboard assay

SMILES	fold change (FC) (Acinetobacter baumannii [1])	MIC (Escherichia coli [2]) [µg/mL]	MIC (Acinetobacter baumannii [3]) [µg/mL]	fold change (FC) (Pseudomonas aeruginosa [4])	MIC (Acinetobacter baumannii [5]) [µg/mL]	MIC (Escherichia coli [6]) [µg/mL]	MIC (Pseudomonas aeruginosa [7]) [µg/mL]	other results
NC[C@H]1O[C@H](O[C@H]2[C@H](OC(=O)Nc3ccccc3)[C@@H](O[C@H]3O[C@H](COC(=O)Nc4ccccc4)[C@@H](OC(=O)Nc4ccccc4)[C@H](N)[C@H]3OC(=O)Nc3ccccc3)[C@H](N)C[C@@H]2N)[C@H](N)C[C@@H]1OC(=O)Nc1ccccc1.O=C(O)C(F)(F)F	16	0.008	0.0312	1	> 128	32	64	–
CC(C)(C)c1ccc(COC[C@H]2O[C@H](O[C@@H]3[C@@H](OCc4ccc(C(C)(C)C)cc4)[C@H](O[C@H]4O[C@H](CN)[C@@H](OCc5ccc(C(C)(C)C)cc5)C[C@H]4N)[C@@H](N)C[C@H]3N)[C@H](OCc3ccc(C(C)(C)C)cc3)[C@@H](N)[C@@H]2OCc2ccc(C(C)(C)C)cc2)cc1.Cl	–	–	–	–	> 128	> 128	> 128	–
CC[C@H](C)CCCCC(=O)N[C@@H](CCN)C(=O)N[C@H](C(=O)N[C@@H](CCN)C(=O)N[C@H]1CCNC(=O)[C@H]([C@@H](C)O)NC(=O)[C@H](CCN)NC(=O)[C@H](CCN)NC(=O)[C@H](CC(C)C)NC(=O)[C@@H](Cc2ccccc2)NC(=O)[C@@H](CCN)NC1=O)[C@@H](C)O (X1-[Dab]T[Dab][Dab][dDab][dF]L[Dab][Dab]T; lactam 4-C)	–	–	–	–	–	–	–	Activity (Enterococcus faecium [8]): Active; Activity (Enterococcus faecium [9]): Active; Activity (Staphylococcus aureus [10]): Active
CC(C)CCOC[C@H]1O[C@H](O[C@@H]2[C@@H](OCCC(C)C)[C@H](O[C@H]3O[C@H](CN)[C@@H](OCCC(C)C)C[C@H]3N)[C@@H](N)C[C@H]2N)[C@H](OCCC(C)C)[C@@H](N)[C@@H]1OCCC(C)C.Cl	2048	–	0.004	16	16	4	16	–
CO[C@H]1/C=C/O[C@@]2(C)Oc3c(C)c(O)c4c(O)c(c(/C=N/N5CCN(C)CC5)c(O)c4c3C2=O)NC(=O)/C(C)=C\C=C\[C@H](C)[C@H](O)[C@@H](C)[C@@H](O)[C@@H](C)[C@H](OC(C)=O)[C@@H]1C [RIFAMPIN]	–	–	–	–	–	–	–	MIC (Escherichia coli [11]): 128 µg/mL (≈ 156 µM); MIC (Pseudomonas aeruginosa [12]): 512 µg/mL (≈ 622 µM); MIC (Pseudomonas aeruginosa [13]): 16 µg/mL (≈ 19.4 µM); MIC (Pseudomonas aeruginosa [14]): 4 µg/mL (≈ 4.86 µM); MIC (Staphylococcus aureus [15]): 256 µg/mL (≈ 311 µM); MIC (Escherichia coli [16]): 8 µg/mL (≈ 9.72 µM); MIC (Acinetobacter baumannii [17]): 2 µg/mL (≈ 2.43 µM); MIC (Acinetobacter baumannii [18]): 4 µg/mL (≈ 4.86 µM); MIC (Acinetobacter baumannii [19]): 8 µg/mL (≈ 9.72 µM); MIC (Enterococcus faecium [20]): 4 µg/mL (≈ 4.86 µM); MIC (Pseudomonas aeruginosa [21]): 16 µg/mL (≈ 19.4 µM); MIC (Acinetobacter baumannii [22]): 2 µg/mL (≈ 2.43 µM); MIC (Acinetobacter baumannii [23]): 4 µg/mL (≈ 4.86 µM); MIC (Enterococcus faecium [24]): 8 µg/mL (≈ 9.72 µM); MIC (Escherichia coli [25]): 32 µg/mL (≈ 38.9 µM); MIC (Pseudomonas aeruginosa [26]): 16 µg/mL (≈ 19.4 µM)
CN(C)c1ccc(O)c2c1C[C@H]1C[C@H]3[C@H](N(C)C)C(O)=C(C(N)=O)C(=O)[C@@]3(O)C(O)=C1C2=O [MINOCYCLINE]	–	–	–	–	–	–	–	MIC (Pseudomonas aeruginosa [27]): 128 µg/mL (≈ 280 µM); MIC (Pseudomonas aeruginosa [12]): 256 µg/mL (≈ 560 µM); MIC (Pseudomonas aeruginosa [28]): 64 µg/mL (≈ 140 µM); MIC (Escherichia coli [29]): 32 µg/mL (≈ 69.9 µM); MIC (Pseudomonas aeruginosa [21]): 32 µg/mL (≈ 69.9 µM); MIC (Escherichia coli [30]): 64 µg/mL (≈ 140 µM); MIC (Pseudomonas aeruginosa [26]): 128 µg/mL (≈ 280 µM)
NC[C@H]1O[C@H](O[C@H]2[C@H](OC(=O)Nc3ccc(Cl)cc3)[C@@H](O[C@H]3O[C@H](COC(=O)Nc4ccc(Cl)cc4)[C@@H](OC(=O)Nc4ccc(Cl)cc4)[C@H](N)[C@H]3OC(=O)Nc3ccc(Cl)cc3)[C@H](N)C[C@@H]2N)[C@H](N)C[C@@H]1OC(=O)Nc1ccc(Cl)cc1.O=C(O)C(F)(F)F	16	0.5	0.004	1	32	32	64	–
CC(C)CCO[C@@H]1[C@@H](OCCC(C)C)[C@H](N)C[C@H](N)[C@H]1O[C@H]1O[C@H](CN)[C@@H](OCCC(C)C)C[C@H]1N.Cl	4	0.0156	0.5	4	> 128	> 128	> 128	fold change (FC) (Escherichia coli [31]): 512
